From patent US20240425501A1, “NOVEL BICYCLIC HETEROARYL DERIVATIVES AS SOS1:KRAS PROTEINPROTEIN INTERACTION INHIBITORS” (SATYARX PHARMA INNOVATIONS PVT LTD, priority 2021, published 2024)

What follows are molecules tested against T1, hSOS1 enzyme / KRAS (G12C), GST-Tag, GDP-bound protein (Homo sapiens, UniProt Q07889) (assay: SOS1-mediated KRAS guanine nucleotide exchange (GEF) assay, HTRF ("On Assay")). Conditions: 1 μM compound.
T1 sequence (Q07889 564-1049 limits assumed): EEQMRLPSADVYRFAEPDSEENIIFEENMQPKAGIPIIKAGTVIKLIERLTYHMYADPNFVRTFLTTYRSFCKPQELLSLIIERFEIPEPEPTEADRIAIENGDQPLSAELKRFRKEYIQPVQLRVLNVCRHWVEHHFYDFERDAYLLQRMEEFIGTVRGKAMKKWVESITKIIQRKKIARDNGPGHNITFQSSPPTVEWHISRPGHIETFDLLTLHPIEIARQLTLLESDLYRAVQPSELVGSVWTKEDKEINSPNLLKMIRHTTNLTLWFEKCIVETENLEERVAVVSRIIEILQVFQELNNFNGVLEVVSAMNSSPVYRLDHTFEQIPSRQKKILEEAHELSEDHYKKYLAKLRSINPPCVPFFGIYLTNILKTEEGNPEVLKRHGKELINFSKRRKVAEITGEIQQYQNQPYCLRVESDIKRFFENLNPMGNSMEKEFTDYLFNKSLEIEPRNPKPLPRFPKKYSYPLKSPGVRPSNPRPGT
Format: biochemical
Description: Biochemical Assay: Measurement of SOS1-Mediated KRAS Guanine Nucleotide Exchange (GEF) Assay
This assay quantifies the HTRF-based SOS1 mediated guanine nucleotide exchange assay detecting GTP binding to KRAS (G12C), GST-Tag, GDP-bound protein. This is also referred as “On Assay”.The assay buffer composition is as follows: 10 mM HEPES pH-7, 150 mM NaCl, 5 mM MgCl2, 1 mM DTT, 0.05% BSA, 0.0025% IGEPAL CA-630 and MilliQ water. 0.5 μl of compounds diluted in assay buffer were dispensed into the respective wells of 384 black well test plate. 4.75 μl of KRAS working solution containing 100 nM KRAS (G12C), GST-Tag, GDP-bound protein GDP-loaded (Reaction biology) and 2 nM Anti GST-Tb cryptate (FRET donor, Cisbio) was added in assay buffer. The components were incubated for 10 min at 25° C.
4.75 μl of hSOS1 working solution containing 20 nM hSOS1 enzyme and 200 nM EDA-GTP-DY-647P (FRET acceptor, synthesized by Jena Bioscience (Germany), supplied as a 1 mM solution) was further added in assay buffer. 4.75 μl of inhibitor control having only 200 nM EDA-GTP-DY-647P1 component without hSOS1 working solution was added in the negative control well. The plate was short spun for few seconds and incubated for 10 min. HTRF was measured using Perkin Elmer-Nivo 5F multimode plate reader.
HTRF settings: EXCITATION FILTER—320/75 nm, EMISSION FILTER (1) —615/8 nm, EMISSION FILTER (2)—665/8 nm
`C[C@@H](Nc1nc(Cl)nc2cnc(N3CCN(C)CC3)cc12)c1cccc(C(F)F)c1F` [Example 61, (R)-2-chloro-N-(1-(3-(difluoromethyl)-2-fluorophenyl)ethyl)-6-(4-methylpiperazin-1-yl)pyrido[3,4-d]pyrimidin-4-amine] was tested, and the inhibition at 1 µM was ≥ 50%.
For `C[C@@H](Nc1nc(N2CCOCC2)nc2cnc(N3CCCC3)cc12)c1cc(N)cc(C(F)(F)F)c1` [Example 5, (R)—N-(1-(3-amino-5-(trifluoromethyl)phenyl)ethyl)-2-morpholino-6-(pyrrolidin-1-yl)pyrido[3,4-d]pyrimidin-4-amine], the inhibition at 1 µM was < 50%.
For `CCN1CCN(c2cc3c(N[C@H](C)c4cc(N)cc(C(F)(F)F)c4)nc(Cl)nc3cc2OC)CC1` [Example 72, (R)—N-(1-(3-amino-5-(trifluoromethyl)phenyl)ethyl)-2-chloro-6-(4-ethylpiperazin-1-yl)-7-methoxyquinazolin-4-amine], the inhibition at 1 µM was ≥ 50%.
With `C[C@@H](Nc1nc(N2CCCC2=O)nc2cnc(N3CCCC3)cc12)c1cc(N)cc(C(F)(F)F)c1` [Example 34, (R)-1-(4-((1-(3-amino-5-(trifluoromethyl)phenyl)ethyl)amino)-6-(pyrrolidin-1-yl)pyrido[3,4-d]pyrimidin-2-yl)pyrrolidin-2-one] the inhibition at 1 µM was ≥ 50%.
For `CC(C)Nc1cc2c(N[C@H](C)c3cc(N)cc(C(F)(F)F)c3)nc(N3CCC3)nc2cn1` [Example 54, (R)—N4-(1-(3-amino-5-(trifluoromethyl)phenyl)ethyl)-2-(azetidin-1-yl)-N6-isopropylpyrido[3,4-d]pyrimidine-4,6-diamine], the inhibition at 1 µM was ≥ 50%.
`C[C@@H](Nc1nc(N(C)C)nc2cnc(N3CCN(C)CC3)cc12)c1cc(N)cc(C(F)(F)F)c1` [Example 45, (R)—N4-(1-(3-amino-5-(trifluoromethyl)phenyl)ethyl)-N2,N2-dimethyl-6-(4-methylpiperazin-1-yl)pyrido[3,4-d]pyrimidine-2,4-diamine] was tested, and the inhibition at 1 µM was ≥ 50%.
`CC(C)Nc1nc(N[C@H](C)c2cc(N)cc(C(F)(F)F)c2)c2cc(N3CCOCC3)ncc2n1` [Example 38, (R)—N4-(1-(3-amino-5-(trifluoromethyl)phenyl)ethyl)-N2-isopropyl-6-morpholinopyrido[3,4-d]pyrimidine-2,4-diamine] was tested, and the inhibition at 1 µM was ≥ 50%.
`C[C@@H](Nc1nc(Cl)nc2cnc(N3CCC(O)CC3)cc12)c1cc(N)cc(C(F)(F)F)c1` [Example 29, (R)-1-(4-((1-(3-amino-5-(trifluoromethyl)phenyl)ethyl)amino)-2-chloropyrido[3,4-d]pyrimidin-6-yl)piperidin-4-ol] was tested, and the inhibition at 1 µM was ≥ 50%.
`CC(C)N1CCN(c2cc3c(N[C@H](C)c4cc(N)cc(C(F)(F)F)c4)nc(Cl)nc3cn2)CC1` [Example 25, (R)—N-(1-(3-amino-5-(trifluoromethyl)phenyl)ethyl)-2-chloro-6-(4-isopropylpiperazin-1-yl)pyrido[3,4-d]pyrimidin-4-amine] was tested, and the inhibition at 1 µM was ≥ 50%.
For `CNc1nc(N[C@H](C)c2cc(N)cc(C(F)(F)F)c2)c2cc(N3CCC(F)(F)CC3)ncc2n1` [Example 32, (R)—N4-(1-(3-amino-5-(trifluoromethyl)phenyl)ethyl)-6-(4,4-difluoropiperidin-1-yl)-N2-methylpyrido[3,4-d]pyrimidine-2,4-diamine], the inhibition at 1 µM was ≥ 50%.
`C[C@@H](Nc1nc(NCCO)nc2cnc(N3CCCC3)cc12)c1cc(N)cc(C(F)(F)F)c1` [Example 12, (R)-2-((4-((1-(3-amino-5-(trifluoromethyl)phenyl)ethyl)amino)-6-(pyrrolidin-1-yl)pyrido[3,4-d]pyrimidin-2-yl)amino)ethan-1-ol] was tested, and the inhibition at 1 µM was ≥ 50%.
With `COC1CCN(c2cc3c(N[C@H](C)c4cc(N)cc(C(F)(F)F)c4)nc(Cl)nc3cn2)CC1` [Example 20, (R)—N-(1-(3-amino-5-(trifluoromethyl)phenyl)ethyl)-2-chloro-6-(4-methoxypiperidin-1-yl)pyrido[3,4-d]pyrimidin-4-amine] the inhibition at 1 µM was ≥ 50%.
With `C[C@@H](Nc1nc(Cl)nc2cnc(C3CCOCC3)cc12)c1cccc(C(F)F)c1F` [Example 64, (R)-2-chloro-N-(1-(3-(difluoromethyl)-2-fluorophenyl)ethyl)-6-(tetrahydro-2H-pyran-4-yl)pyrido[3,4-d]pyrimidin-4-amine] the inhibition at 1 µM was ≥ 50%.
With `C[C@@H](Nc1nc(N2CCCC2)nc2cnc(N3CCCC3)cc12)c1cc(N)cc(C(F)(F)F)c1` [Example 17, (R)—N-(1-(3-amino-5-(trifluoromethyl)phenyl)ethyl)-2,6-di(pyrrolidin-1-yl)pyrido[3,4-d]pyrimidin-4-amine] the inhibition at 1 µM was ≥ 50%.
In the case of `C[C@@H](Nc1nc(Cl)nc2ncc(N3CCOCC3)cc12)c1cc(N)cc(C(F)(F)F)c1` [Example 84, (R)—N-(1-(3-amino-5-(trifluoromethyl)phenyl)ethyl)-2-chloro-6-morpholinopyrido[2,3-d]pyrimidin-4-amine], the inhibition at 1 µM is reported as ≥ 50%.
`CC(C)Nc1cc2c(N[C@H](C)c3cc(N)cc(C(F)(F)F)c3)nc(N3CCCC3)nc2cn1` [Example 55, (R)—N4-(1-(3-amino-5-(trifluoromethyl)phenyl)ethyl)-N6-isopropyl-2-(pyrrolidin-1-yl)pyrido[3,4-d]pyrimidine-4,6-diamine] was tested, and the inhibition at 1 µM was ≥ 50%.
For `CNc1nc(N[C@H](C)c2cc(N)cc(C(F)(F)F)c2)c2cc(C3CCOCC3)ncc2n1` [Example 66, (R)—N4-(1-(3-amino-5-(trifluoromethyl)phenyl)ethyl)-N2-methyl-6-(tetrahydro-2H-pyran-4-yl)pyrido[3,4-d]pyrimidine-2,4-diamine], the inhibition at 1 µM was ≥ 50%.
For `CC1CCN(c2cc3c(N[C@H](C)c4cc(N)cc(C(F)(F)F)c4)nc(N4CCC4)nc3cn2)CC1` [Example 47, (R)—N-(1-(3-amino-5-(trifluoromethyl)phenyl)ethyl)-2-(azetidin-1-yl)-6-(4-methylpiperidin-1-yl)pyrido[3,4-d]pyrimidin-4-amine], the inhibition at 1 µM was < 50%.
With `C[C@@H](Nc1nc(OCCO)nc2cnc(N3CCCC3)cc12)c1cc(N)cc(C(F)(F)F)c1` [Example 11, (R)-2-((4-((1-(3-amino-5-(trifluoromethyl)phenyl)ethyl)amino)-6-(pyrrolidin-1-yl)pyrido[3,4-d]pyrimidin-2-yl)oxy)ethan-1-ol] the inhibition at 1 µM was ≥ 50%.
In the case of `C[C@@H](Nc1nc(Cl)nc2cnc(N3CCN(C4CC4)CC3)cc12)c1cc(N)cc(C(F)(F)F)c1` [Example 26, (R)—N-(1-(3-amino-5-(trifluoromethyl)phenyl)ethyl)-2-chloro-6-(4-cyclopropylpiperazin-1-yl)pyrido[3,4-d]pyrimidin-4-amine], the inhibition at 1 µM is reported as ≥ 50%.
`COc1nc(N[C@H](C)c2cc(N)cc(C(F)(F)F)c2)c2cc(N3CCC(OC)CC3)ncc2n1` [Example 58, (R)—N-(1-(3-amino-5-(trifluoromethyl)phenyl)ethyl)-2-methoxy-6-(4-methoxypiperidin-1-yl)pyrido[3,4-d]pyrimidin-4-amine] was tested, and the inhibition at 1 µM was ≥ 50%.
`COC1CCN(c2cc3c(N[C@H](C)c4cc(N)cc(C(F)(F)F)c4)nc(N(C)C)nc3cn2)CC1` [Example 41, (R)—N4-(1-(3-amino-5-(trifluoromethyl)phenyl)ethyl)-6-(4-methoxypiperidin-1-yl)-N2,N2-dimethylpyrido[3,4-d]pyrimidine-2,4-diamine] was tested, and the inhibition at 1 µM was ≥ 50%.
For `C[C@@H](Nc1nc(Cl)nc2cnc(N3CCOCC3)cc12)c1cccc(C(F)F)c1F` [Example 59, (R)-2-chloro-N-(1-(3-(difluoromethyl)-2-fluorophenyl)ethyl)-6-morpholinopyrido[3,4-d]pyrimidin-4-amine], the inhibition at 1 µM was ≥ 50%.
